# Laboratory results as given in patent publication US8815928B2, “Hepatitis C virus inhibitors” (priority 2009, dated 2014).
# System: HCV 1b genotype replicon
# Test: HCV genotype-1b replicon assay (qRT-PCR or luciferase)
# Format: cell-based
# Conditions: Hepatitis C virus, read-out: Genotype-1b replicon EC50 Range
# Text: HCV replicon cell lines (kindly provided by R. Bartenschlager) isolated from colonies as described by Lohman et. al. (Lohman et al. (1999) Science 285: 110-113, expressly incorporated by reference in its entirety) and used for all experiments. The HCV replicon has the nucleic acid sequence set forth in EMBL Accession No.: AJ242651, the coding sequence of which is from nucleotides 1801 to 8406.
# The coding sequence of the published HCV replicon was synthesized and subsequently assembled in a modified plasmid pBR322 (Promega, Madison, Wis.) using standard molecular biology techniques. […]
# EC50 values of single agent compounds and combinations were determined by HCV RNA detection using quantitative RT-PCR, according to the manufacturer's instructions, with a TAQMAN® One-Step RT-PCR Master Mix Reagents Kit (Cat# AB 4309169, Applied Biosystems) on an ABI Model 7500 thermocycler. The TaqMan primers used for detecting and quantifying HCV RNA were obtained from Integrated DNA Technologies. HCV RNA was normalized to GAPDH RNA levels in drug-treated cells, which was detected and quantified using the Human GAPDH Endogenous Control Mix (Applied Biosystems, AB 4310884E). […] Chemical agent cytotoxicity was evaluated using an MTS assay according to the manufacturer's directions (Promega). […]
structure (smiles),measurement,value
COC(=O)N[C@H](C(=O)N1CCC[C@H]1C(=O)Nc1ncc(-c2ccc3cc(-c4cnc([C@@H]5CCCN5C(=O)[C@@H](NC(=O)OC)C(C)C)[nH]4)ccc3c2)cn1)C(C)C [Compound 348],EC50,1 to 10 nM
